# Experimental data from patent US8952024B2, “Herbicidal pyrimidone derivatives” (E I du Pont de Nemours and Company, priority 2009, dated 2015).
# Tests used:
# Assay type in all cases: in vivo
# [1] = test system: winter barley (Hordeum vulgare); experiment: Test B postemergence plant response; conditions: for Barley plant response rating (0 to 100 scale): 0 is no effect
# Summary of the method: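 Plants grown in peat/vermiculite medium were sprayed postemergence at 2–18 cm height (1- to 4-leaf stage). After 13–15 days in the greenhouse, response was rated visually against untreated controls on a 0–100 scale (0 no effect, 100 complete control).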
# [2] = test system: velvetleaf (Abutilon theophrasti); experiment: Test A pre-/postemergence plant response
# Summary of the method: (§1)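 Formulated test chemicals (non-phytotoxic solvent, surfactant) were sprayed onto soil right after planting and simultaneously onto young plants at one to two leaves, 2 to 10 cm tall. Plants stayed in the greenhouse about ten days; injury was then visually scored against untreated controls, from 0 (no effect) to 100 (complete control).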
# [3] = test system: large crabgrass (Digitaria sanguinalis); experiment: Test A pre-/postemergence plant response
# Summary of the method: as §1
# [4] = test system: morningglory (Ipomoea spp.); experiment: Test A pre-/postemergence plant response
# Summary of the method: as §1
# [5] = test system: giant foxtail (Setaria faberii); experiment: Test A pre-/postemergence plant response
# Summary of the method: as §1
# [6] = test system: pigweed (Amaranthus retroflexus); experiment: Test A pre-/postemergence plant response
# Summary of the method: as §1
# [7] = test system: barnyardgrass (Echinochloa crus-galli); experiment: Test A pre-/postemergence plant response
# Summary of the method: as §1
# corn (Zea mays) = experiment: Test A pre-/postemergence plant response
# Summary of the method: as §1
# [8] = test system: wheat (Triticum aestivum); experiment: Test A pre-/postemergence plant response
# Summary of the method: as §1
# [9] = test system: ducksalad (Heteranthera limosa); experiment: Test B flooded paddy test; conditions: for Plant response rating, Flood, Ducksalad: 250 g ai/ha, flooded paddy test, visual rating on 0 to 100 scale (0 no effect, 100 complete control) after 13 to 15 days; for Plant response rating, Ducksalad: Flood (flooded paddy test), 13 to 15 days; for Ducksalad plant response rating: Flood, 31 g ai/ha, scale 0 to 100 (0 no effect, 100 complete control)
# Summary of the method: (§2)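 Seedlings reaching 2 leaves are flooded 3 cm deep; test material is delivered to that water, which stays at the same depth. Plants remain in a greenhouse 13–15 days and are then scored by eye versus controls from 0 to 100.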
# rice (Oryza sativa) = experiment: Test B flooded paddy test; conditions: for Plant response rating, Flood, Rice: 250 g ai/ha, flooded paddy test, visual rating on 0 to 100 scale (0 no effect, 100 complete control) after 13 to 15 days; for Plant response rating, Rice: Flood (flooded paddy test), 13 to 15 days; for Rice plant response rating: Flood, 31 g ai/ha, scale 0 to 100 (0 no effect, 100 complete control)
# Summary of the method: as §2
# [10] = test system: barnyardgrass (Echinochloa crus-galli); experiment: Test B flooded paddy test; conditions: for Plant response rating, Flood, Barnyardgrass: 250 g ai/ha, flooded paddy test, visual rating on 0 to 100 scale (0 no effect, 100 complete control) after 13 to 15 days; for Plant response rating, Barnyardgrass: Flood (flooded paddy test), 13 to 15 days; for Barnyardgrass plant response rating: Flood, 31 g ai/ha, scale 0 to 100 (0 no effect, 100 complete control)
# Summary of the method: as §2
# [11] = test system: umbrella sedge (Cyperus difformis); experiment: Test B flooded paddy test; conditions: for Plant response rating, Flood, Sedge, Umbrella: 250 g ai/ha, flooded paddy test, visual rating on 0 to 100 scale (0 no effect, 100 complete control) after 13 to 15 days; for Plant response rating, Sedge, Umbrella: Flood (flooded paddy test), 13 to 15 days; for Sedge, Umbrella plant response rating: Flood, 31 g ai/ha, scale 0 to 100 (0 no effect, 100 complete control)
# Summary of the method: as §2
# [12] = 62 g ai/ha, postemergence, 100 is complete control, 13 to 15 days
# [13] = Postemergence, 125 g ai/ha, scale 0 to 100 (0 no effect, 100 complete control)
# [14] = Postemergence, 125 g ai/ha, 0 to 100 scale where 0 is no effect and 100 is complete control
# [15] = Postemergence, 500 g ai/ha, 0 to 100 scale, 0 = no effect, 100 = complete control, approx. ten days
# [16] = Preemergence, 125 g ai/ha, 0 to 100 scale, 0 = no effect, 100 = complete control
# [17] = Preemergence, 500 g ai/ha, visual injury, 0 to 100 scale (0 no effect, 100 complete control), approx. ten days
# [18] = 62 g ai/ha, scale of 0 to 100 where 0 is no effect and 100 is complete control
# [19] = 125 g ai/ha, scale 0 to 100, 0 is no effect, 100 is complete control
# [20] = Postemergence, 125 g ai/ha, visual injury, 0 to 100 scale (0 no effect, 100 complete control), approx. ten days
# [21] = 62 g ai/ha, scale 0 to 100, 0 is no effect, 100 is complete control
# [22] = Postemergence, 500 g ai/ha, visual injury, 0 to 100 scale (0 no effect, 100 complete control), approx. ten days
# [23] = Preemergence, 500 g ai/ha, 0 to 100 scale, 0 = no effect, 100 = complete control
structure (smiles),measurement,setting,value
O=C1CCCC(O)=C1C(=O)c1cnc(-c2ccsc2)n(C2CCCCC2)c1=O [Compound 99],"Plant response rating, Barley","[1]; 31 g ai/ha, postemergence, scale 0 to 100, 0 is no effect, 100 is complete control",5
same,Barley plant response rating (0 to 100 scale),[1]; [12],5
same,"Plant response rating, Barley",[1]; [13],10
same,"Plant response rating, Barley","[1]; Postemergence, 250 g ai/ha, scale 0 to 100 (0 no effect, 100 complete control)",30
same,"Plant response rating, Velvetleaf",[2]; [14],100
same,"Plant response rating, Velvetleaf",[2]; [15],100
same,"Plant response rating, Velvetleaf",[2]; [16],80
same,"Plant response rating, Velvetleaf",[2]; [17],100
same,"Plant response rating, Crabgrass, Large",[3]; [14],90
same,"Plant response rating, Crabgrass, Large",[3]; [15],100
same,"Plant response rating, Crabgrass, Large",[3]; [16],60
same,"Plant response rating, Crabgrass, Large",[3]; [17],100
same,"Plant response rating, Morningglory",[4]; [14],100
same,"Plant response rating, Morningglory",[4]; [15],100
same,"Plant response rating, Morningglory",[4]; [17],80
same,"Plant response rating, Foxtail, Giant",[5]; [14],80
same,"Plant response rating, Foxtail, Giant",[5]; [15],90
same,"Plant response rating, Foxtail, Giant",[5]; [16],40
same,"Plant response rating, Foxtail, Giant",[5]; [17],80
same,"Plant response rating, Pigweed",[6]; [14],100
same,"Plant response rating, Pigweed",[6]; [15],100
same,"Plant response rating, Pigweed",[6]; [16],90
same,"Plant response rating, Pigweed",[6]; [17],100
same,"Plant response rating, Barnyardgrass",[7]; [14],90
same,"Plant response rating, Barnyardgrass",[7]; [15],90
same,"Plant response rating, Barnyardgrass",[7]; [16],10
same,"Plant response rating, Barnyardgrass",[7]; [17],90
same,"Plant response rating, Corn",corn (Zea mays); [14],0
same,"Plant response rating, Corn",corn (Zea mays); [15],20
same,"Plant response rating, Corn",corn (Zea mays); [16],0
same,"Plant response rating, Corn",corn (Zea mays); [17],0
same,"Plant response rating, Wheat",[8]; [14],0
same,"Plant response rating, Wheat",[8]; [15],0
same,"Plant response rating, Wheat",[8]; [16],0
same,"Plant response rating, Wheat",[8]; [17],0
same,"Plant response rating, Flood, Ducksalad",[9],80
same,"Plant response rating, Ducksalad",[9]; [18],40
same,"Plant response rating, Ducksalad",[9]; [19],75
same,Ducksalad plant response rating,[9],30
same,"Plant response rating, Flood, Rice",rice (Oryza sativa),60
same,"Plant response rating, Rice",rice (Oryza sativa); [18],0
same,"Plant response rating, Rice",rice (Oryza sativa); [19],0
same,Rice plant response rating,rice (Oryza sativa),0
same,"Plant response rating, Flood, Barnyardgrass",[10],55
same,"Plant response rating, Barnyardgrass",[10]; [18],20
same,"Plant response rating, Barnyardgrass",[10]; [19],20
same,Barnyardgrass plant response rating,[10],0
same,"Plant response rating, Flood, Sedge, Umbrella",[11],85
same,"Plant response rating, Sedge, Umbrella",[11]; [18],50
same,"Plant response rating, Sedge, Umbrella",[11]; [19],65
same,"Sedge, Umbrella plant response rating",[11],50
O=C1CCCC(O)=C1C(=O)c1cnc(-c2ccccc2)n(-c2ccc(F)cc2)c1=O [Compound 24],"Plant response rating, Barley","[1]; Postemergence, 31 g ai/ha, scale 0 to 100 (0 no effect, 100 complete control)",0
same,"Plant response rating, Barley","[1]; Postemergence, 62 g ai/ha, scale 0 (no effect) to 100 (complete control), 13 to 15 days",5
same,"Plant response rating, Barley","[1]; Postemergence, 125 g ai/ha, scale 0 to 100 (0 no effect, 100 complete control), 13 to 15 days",50
same,Barley plant response rating,"[1]; Postemergence, 250 g ai/ha, scale 0 to 100",70
same,Velvetleaf plant response rating,[2]; [20],100
same,"Plant response rating, Velvetleaf",[2]; [15],100
same,"Plant response rating, Velvetleaf",[2]; [16],90
same,"Plant response rating, Velvetleaf",[2]; [17],100
same,"Crabgrass, Large plant response rating",[3]; [20],70
same,"Plant response rating, Crabgrass, Large",[3]; [15],90
same,"Plant response rating, Crabgrass, Large",[3]; [16],30
same,"Plant response rating, Crabgrass, Large",[3]; [17],100
same,Morningglory plant response rating,[4]; [20],70
same,"Plant response rating, Morningglory",[4]; [15],100
same,"Plant response rating, Morningglory",[4]; [16],20
same,"Plant response rating, Morningglory",[4]; [17],80
same,"Foxtail, Giant plant response rating",[5]; [20],70
same,"Plant response rating, Foxtail, Giant",[5]; [15],90
same,"Plant response rating, Foxtail, Giant",[5]; [16],40
same,"Plant response rating, Foxtail, Giant",[5]; [17],100
same,Pigweed plant response rating,[6]; [20],90
same,"Plant response rating, Pigweed",[6]; [15],100
same,"Plant response rating, Pigweed",[6]; [16],90
same,"Plant response rating, Pigweed",[6]; [17],100
same,Barnyardgrass plant response rating,[7]; [20],10
same,"Plant response rating, Barnyardgrass",[7]; [15],70
same,"Plant response rating, Barnyardgrass",[7]; [16],10
same,"Plant response rating, Barnyardgrass",[7]; [17],90
same,Corn plant response rating,corn (Zea mays); [20],0
same,"Plant response rating, Corn",corn (Zea mays); [15],30
same,"Plant response rating, Corn",corn (Zea mays); [16],0
same,"Plant response rating, Corn",corn (Zea mays); [17],0
same,Wheat plant response rating,[8]; [20],0
same,"Plant response rating, Wheat",[8]; [15],30
same,"Plant response rating, Wheat",[8]; [16],0
same,"Plant response rating, Wheat",[8]; [17],20
same,"Plant response rating, Flood, Ducksalad",[9],75
same,"Plant response rating, Ducksalad",[9]; [21],20
same,"Plant response rating, Flood, Rice",rice (Oryza sativa),0
same,"Plant response rating, Rice",rice (Oryza sativa); [21],0
same,"Plant response rating, Flood, Barnyardgrass",[10],20
same,"Plant response rating, Barnyardgrass",[10]; [21],0
same,"Plant response rating, Flood, Sedge, Umbrella",[11],75
same,"Plant response rating, Sedge, Umbrella",[11]; [21],0
CCCn1c(-c2cc(Cl)cc(Cl)c2)ncc(C(=O)C2=C(O)CCCC2=O)c1=O [Compound 173],Barley plant response rating (0 to 100 scale),[1]; [12],20
same,"Plant response rating, Barley","[1]; Postemergence, 31 g ai/ha, 0 to 100 scale (0 no effect, 100 complete control)",5
same,"Plant response rating, Barley",[1]; [13],35
same,"Plant response rating, Barley","[1]; Postemergence, 250 g ai/ha, scale 0 to 100 (0 no effect, 100 complete control), 13 to 15 days",50
same,"Plant response rating, Velvetleaf",[2]; [14],100
same,Velvetleaf plant response rating,[2]; [22],100
same,"Plant response rating, Velvetleaf",[2]; [16],70
same,"Plant response rating, Velvetleaf",[2]; [23],100
same,"Plant response rating, Crabgrass, Large",[3]; [14],70
same,"Crabgrass, Large plant response rating",[3]; [22],90
same,"Plant response rating, Crabgrass, Large",[3]; [16],40
same,"Plant response rating, Crabgrass, Large",[3]; [23],100
same,"Plant response rating, Morningglory",[4]; [14],100
same,Morningglory plant response rating,[4]; [22],100
same,"Plant response rating, Morningglory",[4]; [16],0
same,"Plant response rating, Foxtail, Giant",[5]; [14],70
same,"Foxtail, Giant plant response rating",[5]; [22],90
same,"Plant response rating, Foxtail, Giant",[5]; [16],20
same,"Plant response rating, Foxtail, Giant",[5]; [23],40
same,"Plant response rating, Pigweed",[6]; [14],100
same,Pigweed plant response rating,[6]; [22],100
same,"Plant response rating, Pigweed",[6]; [16],50
same,"Plant response rating, Pigweed",[6]; [23],90
same,"Plant response rating, Barnyardgrass",[7]; [14],90
same,Barnyardgrass plant response rating,[7]; [22],100
same,"Plant response rating, Barnyardgrass",[7]; [16],0
same,"Plant response rating, Barnyardgrass",[7]; [23],60
same,"Plant response rating, Corn",corn (Zea mays); [14],0
same,Corn plant response rating,corn (Zea mays); [22],20
same,"Plant response rating, Corn",corn (Zea mays); [16],0
same,"Plant response rating, Corn",corn (Zea mays); [23],10
same,"Plant response rating, Wheat",[8]; [14],0
same,Wheat plant response rating,[8]; [22],60
same,"Plant response rating, Wheat",[8]; [16],0
same,"Plant response rating, Wheat",[8]; [23],20
same,"Plant response rating, Ducksalad",[9]; [19],75
same,Ducksalad plant response rating,[9],30
same,"Plant response rating, Rice",rice (Oryza sativa); [19],15
same,Rice plant response rating,rice (Oryza sativa),0
same,"Plant response rating, Barnyardgrass",[10]; [19],15
same,Barnyardgrass plant response rating,[10],0
same,"Plant response rating, Sedge, Umbrella",[11]; [19],85
same,"Sedge, Umbrella plant response rating",[11],0
